Test [1] concerns the target T1, His-p53 Y220C (94-294) protein (Homo sapiens, UniProt P04637, Y220C).
T1 construct: His-p53 Y220C (94-294) protein
The test can be described thus: In vitro DNA binding assay (HTRF). In kind it is biochemical. Conditions: % activation normalized to 2 μM Ref-1a high control. Background: Time-resolved FRET reads energy transfer from a long-lived donor to a nearby acceptor.

For test [2], the system named is NUGC-3_P53_Luc single clonal cell line (p53 Y220C). Description: Reporter gene assay (p53 RE luciferase). Type of test: cell-based. Conditions: luciferase reporter, 6 hours, normalized to Ref-1a (10 μM) high control, read-out: p53(Y220C)_NUGC-3 EC50. An outline of the steps: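 Luminescence normalised to DMSO-only (0%) and 10 μM Ref-1a (100%) wells gives % activity, fitted by 4-parameter logistic or Excel to yield EC50 at 50%. Reporter line: NUGC-3 with p53 response element-luc2P, compound-treated 6 h at 37 °C.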
In general terms: A reporter such as luciferase makes a cellular process visible.

The test system of test [3] is NUGC4 (P53 WT). The test can be described thus: Cell viability assay (CellTiter-Glo, 6 days), NUGC4. Type of test: cell-based. Conditions: cell viability, 6 days, CellTiter-Glo, read-out: NUGC4 (P53 WT) IC50. An outline of the steps:
(§1)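 After a 6-day compound exposure following overnight plating, ATP luminescence (CellTiter-Glo) gave percent viability relative to DMSO-treated cells and cell-free medium controls. IC50 = concentration at 50% viability, from 4-parameter logistic or Excel fit.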

The test system of test [4] is NUGC3 (P53 Y220C). The test can be described thus: Cell viability assay (CellTiter-Glo, 6 days), NUGC3. In kind it is cell-based. Conditions: cell viability, 6 days, CellTiter-Glo, read-out: NUGC3 (P53 Y220C) IC50. Put shortly:
as §1

Where two headings read alike, the source gives them in different places.

As a reminder, the EC50 is the concentration at which the effect is half-maximal. As a reminder, the IC50 is the concentration needed to halve the response being measured.

Regarding `COc1cc(C(N)=O)ccc1NCC#Cc1sc2c(NC3CCN(C)CC3F)cccc2c1CC(F)(F)F` (stereo not shown) [Example 46, 4-((3-(7-(((Z)-3-fluoro-1-methylpiperidin-4-yl)amino)-3-(2,2,2-trifluoroethyl)benzo[b]thiophen-2-yl)prop-2-yn-1-yl)amino)-3-methoxybenzamide], the EC50 in test [1] was determined as 47 nM; in test [2], 170 nM. The IC50 in test [3] is 10500 nM; in test [4], 1350 nM.

For `COc1cc(P(C)(C)=O)ccc1NCC#Cc1sc2c(N[C@@H]3CCN(C(C)C)C[C@@H]3F)cccc2c1CC(F)(F)F` (racemic) [Example 86, (4-((3-(7-(((Z)-3-fluoro-1-isopropylpiperidin-4-yl)amino)-3-(2,2,2-trifluoroethyl)benzo[b]thiophen-2-yl)prop-2-yn-1-yl)amino)-3-methoxyphenyl)dimethylphosphine oxide], the EC50 in test [1] stood at 37 nM; in test [2] (Homo sapiens, NUGC-3, 6 h) it was 140 nM. Besides, the IC50 was 4560 nM in test [3] (Homo sapiens, NUGC-4, 144 h) and 790 nM in test [4] (Homo sapiens, NUGC-3, 144 h).

Consider `CN1CC[C@@H](Nc2cccc3c(CC(F)(F)F)c(C#CCNc4ccc(P(C)(C)=O)c5ccoc45)sc23)[C@@H](F)C1` [Example 198, (7-((3-(7-(((3S,4R)-3-fluoro-1-methylpiperidin-4-yl)amino)-3-(2,2,2-trifluoroethyl)benzo[b]thiophen-2-yl)prop-2-yn-1-yl)amino)benzofuran-4-yl)dimethylphosphine oxide], for which the EC50 came out at 43 nM in test [1] and 200 nM in test [2] (Homo sapiens, NUGC-3). For the same compound, the IC50 worked out at 5100 nM in test [3] (Homo sapiens, NUGC-4, 144 h) and 260 nM in test [4] (Homo sapiens, NUGC-3, 144 h).

As for `COc1cc(P(C)(C)=O)ccc1NCC#Cc1sc2c(N[C@@H]3CCN(C4CC4)C[C@@H]3F)cccc2c1CC(F)(F)F` (racemic) [Example 74, (4-((3-(7-(((Z)-1-cyclopropyl-3-fluoropiperidin-4-yl)amino)-3-(2,2,2-trifluoroethyl)benzo[b]thiophen-2-yl)prop-2-yn-1-yl)amino)-3-methoxyphenyl)dimethylphosphine oxide], the EC50 in test [1] was 127 nM; in test [2] (Homo sapiens, NUGC-3), 250 nM. The IC50 in test [3] (Homo sapiens, NUGC-4, 144 h) is 2730 nM; in test [4] (Homo sapiens, NUGC-3, 144 h) it was 2050 nM.

Regarding `CCN1CC[C@H](Nc2cccc3c(CC(F)(F)F)c(C#CCNc4ccc(P(C)(C)=O)cc4OC)sc23)[C@H](F)C1` [Example 136, (4-((3-(7-(((3R,4S)-1-ethyl-3-fluoropiperidin-4-yl)amino)-3-(2,2,2-trifluoroethyl)benzo[b]thiophen-2-yl)prop-2-yn-1-yl)amino)-3-methoxyphenyl)dimethylphosphine oxide], the EC50 was 46 nM in test [1] and 240 nM in test [2] (Homo sapiens, NUGC-3, 6 h). Also, the IC50 in test [3] (Homo sapiens, NUGC-4, 144 h) is 4880 nM; in test [4] (Homo sapiens, NUGC-3, 144 h), 1630 nM.

On to `[2H]C([2H])([2H])Oc1cc(P(C)(C)=O)ccc1NCC#Cc1sc2c(N[C@@H]3CCN(C4CCOCC4)C[C@@H]3F)cccc2c1CC(F)(F)F` [Example 184, (4-((3-(7-(((3S,4R)-3-fluoro-1-(tetrahydro-2H-pyran-4-yl)piperidin-4-yl)amino)-3-(2,2,2-trifluoroethyl)benzo[b]thiophen-2-yl)prop-2-yn-1-yl)amino)-3-(methoxy-d3)phenyl)dimethylphosphine oxide], for which the EC50 in test [1] was determined as 42 nM; in test [2] (Homo sapiens, NUGC-3) it was 100 nM. The IC50 in test [3] (Homo sapiens, NUGC-4, 144 h) was found to be 4460 nM; in test [4] (Homo sapiens, NUGC-3, 144 h), 440 nM.

On to `COc1cc(P(C)(C)=O)ccc1NCC#Cc1sc2c(N[C@@H]3CCN(C4CCOCC4)C[C@@H]3F)cccc2c1CC(F)(F)F` [Example 147, (4-((3-(7-(((3S,4R)-3-fluoro-1-(tetrahydro-2H-pyran-4-yl)piperidin-4-yl)amino)-3-(2,2,2-trifluoroethyl)benzo[b]thiophen-2-yl)prop-2-yn-1-yl)amino)-3-methoxyphenyl)dimethylphosphine oxide], for which the EC50 in test [1] amounted to 91 nM; in test [2] (Homo sapiens, NUGC-3, 6 h) it was 110 nM. Also, the IC50 in test [3] (Homo sapiens, NUGC-4, 144 h) was 6830 nM; in test [4] (Homo sapiens, NUGC-3, 144 h), 1470 nM.

These data come from patent US20240400591A1 (Jacobio Pharmaceuticals Co., Ltd., priority 2021, published 2024).
